From article PMC3961306, “Comparison of the Cancer Gene Targeting and Biochemical Selectivities of All Targeted Kinase Inhibitors Approved for Clinical Use” (PLoS ONE, 2014)

Columns and labels:
Test in all cases: Kinase profiling in a biochemical assay panel (mobility shift assays and ELISA), %-inhibition at 1 μM; selectivity entropy
[1] = target: panel of more than 300 wild-type and mutant kinases (313 kinase panel) (Homo sapiens, UniProt P22455, V550E); settings: kinase FGFR4(V550E); compound at 1 μM
Sequence of panel of more than 300 wild-type and mutant kinases (313 kinase panel) (Homo sapiens, UniProt P22455, V550E) (P22455 22-802 V550E): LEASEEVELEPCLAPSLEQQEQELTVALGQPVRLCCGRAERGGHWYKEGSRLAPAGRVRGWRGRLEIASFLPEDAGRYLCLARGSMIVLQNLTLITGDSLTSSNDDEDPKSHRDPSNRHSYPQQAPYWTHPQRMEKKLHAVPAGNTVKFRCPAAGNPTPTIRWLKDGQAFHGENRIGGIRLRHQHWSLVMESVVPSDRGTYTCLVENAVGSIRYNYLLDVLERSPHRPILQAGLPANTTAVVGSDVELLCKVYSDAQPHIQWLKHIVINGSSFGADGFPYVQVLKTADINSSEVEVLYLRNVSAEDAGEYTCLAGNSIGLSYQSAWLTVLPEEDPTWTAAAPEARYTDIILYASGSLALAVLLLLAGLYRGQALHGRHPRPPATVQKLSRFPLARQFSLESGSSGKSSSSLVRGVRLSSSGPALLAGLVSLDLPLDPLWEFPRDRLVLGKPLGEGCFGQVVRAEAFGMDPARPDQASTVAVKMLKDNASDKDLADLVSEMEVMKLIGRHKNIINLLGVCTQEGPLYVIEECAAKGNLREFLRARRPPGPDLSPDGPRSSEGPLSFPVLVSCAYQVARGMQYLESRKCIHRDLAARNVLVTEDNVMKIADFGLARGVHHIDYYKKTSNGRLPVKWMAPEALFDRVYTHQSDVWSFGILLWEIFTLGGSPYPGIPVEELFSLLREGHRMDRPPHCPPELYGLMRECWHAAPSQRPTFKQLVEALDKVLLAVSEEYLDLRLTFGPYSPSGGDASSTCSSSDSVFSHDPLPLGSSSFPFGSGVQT

[2] = target: T1, panel of more than 300 wild-type and mutant kinases (313 kinase panel) (Homo sapiens, UniProt Q06418)
T1 sequence (Q06418 41-890): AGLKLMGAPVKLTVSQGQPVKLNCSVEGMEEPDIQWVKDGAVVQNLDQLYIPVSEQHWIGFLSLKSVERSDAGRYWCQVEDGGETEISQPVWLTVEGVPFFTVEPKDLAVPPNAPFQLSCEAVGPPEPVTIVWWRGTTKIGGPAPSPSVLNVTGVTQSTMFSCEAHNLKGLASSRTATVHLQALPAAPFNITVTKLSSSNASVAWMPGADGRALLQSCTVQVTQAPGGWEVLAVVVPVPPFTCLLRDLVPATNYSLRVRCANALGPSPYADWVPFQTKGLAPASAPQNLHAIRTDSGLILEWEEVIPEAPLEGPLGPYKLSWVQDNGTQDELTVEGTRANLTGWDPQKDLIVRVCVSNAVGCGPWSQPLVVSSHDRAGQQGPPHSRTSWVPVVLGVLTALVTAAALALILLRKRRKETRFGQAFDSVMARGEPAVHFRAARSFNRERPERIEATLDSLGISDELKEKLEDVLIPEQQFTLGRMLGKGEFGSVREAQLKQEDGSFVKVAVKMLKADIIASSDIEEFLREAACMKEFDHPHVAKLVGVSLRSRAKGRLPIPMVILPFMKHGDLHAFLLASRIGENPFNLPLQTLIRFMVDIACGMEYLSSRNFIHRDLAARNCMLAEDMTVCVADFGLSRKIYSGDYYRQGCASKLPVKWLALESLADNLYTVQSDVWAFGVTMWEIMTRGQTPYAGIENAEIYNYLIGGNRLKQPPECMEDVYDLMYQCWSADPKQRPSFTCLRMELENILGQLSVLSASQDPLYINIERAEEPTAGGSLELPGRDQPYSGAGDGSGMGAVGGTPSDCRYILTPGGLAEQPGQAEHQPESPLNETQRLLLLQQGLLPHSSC

[3] = target: panel of more than 300 wild-type and mutant kinases (313 kinase panel) (Homo sapiens, UniProt Q9UPE1)
[4] = target: panel of more than 300 wild-type and mutant kinases (313 kinase panel) (Homo sapiens, UniProt P08581, Y1235D)
Sequence of panel of more than 300 wild-type and mutant kinases (313 kinase panel) (Homo sapiens, UniProt P08581, Y1235D) (P08581 25-1390 Y1235D): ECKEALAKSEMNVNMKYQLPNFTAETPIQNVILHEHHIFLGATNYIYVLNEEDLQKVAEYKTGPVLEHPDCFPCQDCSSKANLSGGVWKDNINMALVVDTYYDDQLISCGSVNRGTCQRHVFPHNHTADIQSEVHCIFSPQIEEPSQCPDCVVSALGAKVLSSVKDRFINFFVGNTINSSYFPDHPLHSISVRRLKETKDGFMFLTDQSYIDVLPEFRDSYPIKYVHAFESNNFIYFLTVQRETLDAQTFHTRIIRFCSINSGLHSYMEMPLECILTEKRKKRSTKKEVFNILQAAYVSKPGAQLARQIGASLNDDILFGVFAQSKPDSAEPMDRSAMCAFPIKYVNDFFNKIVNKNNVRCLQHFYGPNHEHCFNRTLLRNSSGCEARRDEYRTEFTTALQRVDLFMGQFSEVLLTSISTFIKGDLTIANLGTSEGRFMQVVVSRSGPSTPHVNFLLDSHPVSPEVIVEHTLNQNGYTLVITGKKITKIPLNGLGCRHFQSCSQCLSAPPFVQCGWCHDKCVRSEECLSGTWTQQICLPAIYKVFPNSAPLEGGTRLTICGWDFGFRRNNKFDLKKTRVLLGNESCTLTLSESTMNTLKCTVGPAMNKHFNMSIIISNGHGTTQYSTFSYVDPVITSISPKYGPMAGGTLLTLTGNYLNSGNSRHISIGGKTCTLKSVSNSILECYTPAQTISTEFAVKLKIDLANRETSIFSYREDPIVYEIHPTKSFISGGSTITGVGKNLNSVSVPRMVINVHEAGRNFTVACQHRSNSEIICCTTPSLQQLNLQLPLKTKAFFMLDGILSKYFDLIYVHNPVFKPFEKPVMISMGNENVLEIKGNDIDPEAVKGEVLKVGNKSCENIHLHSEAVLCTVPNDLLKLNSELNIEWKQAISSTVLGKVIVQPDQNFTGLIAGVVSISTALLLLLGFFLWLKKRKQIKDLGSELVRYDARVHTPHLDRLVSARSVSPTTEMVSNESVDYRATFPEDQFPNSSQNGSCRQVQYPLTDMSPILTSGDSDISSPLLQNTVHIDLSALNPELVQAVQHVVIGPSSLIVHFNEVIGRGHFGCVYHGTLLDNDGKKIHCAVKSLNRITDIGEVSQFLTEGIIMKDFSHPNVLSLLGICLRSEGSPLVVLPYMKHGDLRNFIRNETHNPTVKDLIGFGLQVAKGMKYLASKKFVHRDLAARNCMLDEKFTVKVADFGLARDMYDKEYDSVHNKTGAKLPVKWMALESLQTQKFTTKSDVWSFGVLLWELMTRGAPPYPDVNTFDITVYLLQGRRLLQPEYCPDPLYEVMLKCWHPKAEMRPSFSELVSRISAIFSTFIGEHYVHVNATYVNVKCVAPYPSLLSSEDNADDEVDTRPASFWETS

[5] = target: panel of more than 300 wild-type and mutant kinases (313 kinase panel) (Homo sapiens, UniProt P07949, M918T)
Sequence of panel of more than 300 wild-type and mutant kinases (313 kinase panel) (Homo sapiens, UniProt P07949, M918T) (P07949 29-1114 M918T): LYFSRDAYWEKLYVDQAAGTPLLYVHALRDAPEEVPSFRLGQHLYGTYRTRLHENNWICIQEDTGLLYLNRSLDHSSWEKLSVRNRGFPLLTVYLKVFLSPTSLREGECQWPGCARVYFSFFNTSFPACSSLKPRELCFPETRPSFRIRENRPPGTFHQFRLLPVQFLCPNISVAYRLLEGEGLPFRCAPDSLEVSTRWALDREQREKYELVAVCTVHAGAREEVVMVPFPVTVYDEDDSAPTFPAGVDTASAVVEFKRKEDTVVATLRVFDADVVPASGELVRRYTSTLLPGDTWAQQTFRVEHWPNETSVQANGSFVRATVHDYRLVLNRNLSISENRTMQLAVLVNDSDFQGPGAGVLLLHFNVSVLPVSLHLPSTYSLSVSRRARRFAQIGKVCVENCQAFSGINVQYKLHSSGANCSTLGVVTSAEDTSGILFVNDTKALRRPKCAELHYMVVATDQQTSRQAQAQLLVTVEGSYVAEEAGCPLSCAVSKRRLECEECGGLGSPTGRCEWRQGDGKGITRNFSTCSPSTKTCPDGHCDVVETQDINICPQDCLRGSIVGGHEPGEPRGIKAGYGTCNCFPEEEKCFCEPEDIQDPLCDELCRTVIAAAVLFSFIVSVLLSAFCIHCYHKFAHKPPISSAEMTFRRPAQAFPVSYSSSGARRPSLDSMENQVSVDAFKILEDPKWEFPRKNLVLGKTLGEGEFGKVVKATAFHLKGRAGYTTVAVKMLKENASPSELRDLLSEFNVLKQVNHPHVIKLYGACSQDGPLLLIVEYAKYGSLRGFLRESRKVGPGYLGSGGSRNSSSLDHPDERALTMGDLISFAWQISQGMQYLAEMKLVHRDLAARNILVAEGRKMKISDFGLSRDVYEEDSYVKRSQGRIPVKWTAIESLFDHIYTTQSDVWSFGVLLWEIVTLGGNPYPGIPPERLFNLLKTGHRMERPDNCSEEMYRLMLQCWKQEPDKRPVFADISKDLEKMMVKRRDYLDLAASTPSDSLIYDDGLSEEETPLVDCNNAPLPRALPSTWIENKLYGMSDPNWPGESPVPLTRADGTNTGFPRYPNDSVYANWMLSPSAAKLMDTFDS

[6] = target: panel of more than 300 wild-type and mutant kinases (313 kinase panel) (Homo sapiens, UniProt Q9HBH9)
[7] = target: T2, panel of more than 300 wild-type and mutant kinases (313 kinase panel) (Homo sapiens, UniProt P21709)
T2 sequence (P21709 26-976): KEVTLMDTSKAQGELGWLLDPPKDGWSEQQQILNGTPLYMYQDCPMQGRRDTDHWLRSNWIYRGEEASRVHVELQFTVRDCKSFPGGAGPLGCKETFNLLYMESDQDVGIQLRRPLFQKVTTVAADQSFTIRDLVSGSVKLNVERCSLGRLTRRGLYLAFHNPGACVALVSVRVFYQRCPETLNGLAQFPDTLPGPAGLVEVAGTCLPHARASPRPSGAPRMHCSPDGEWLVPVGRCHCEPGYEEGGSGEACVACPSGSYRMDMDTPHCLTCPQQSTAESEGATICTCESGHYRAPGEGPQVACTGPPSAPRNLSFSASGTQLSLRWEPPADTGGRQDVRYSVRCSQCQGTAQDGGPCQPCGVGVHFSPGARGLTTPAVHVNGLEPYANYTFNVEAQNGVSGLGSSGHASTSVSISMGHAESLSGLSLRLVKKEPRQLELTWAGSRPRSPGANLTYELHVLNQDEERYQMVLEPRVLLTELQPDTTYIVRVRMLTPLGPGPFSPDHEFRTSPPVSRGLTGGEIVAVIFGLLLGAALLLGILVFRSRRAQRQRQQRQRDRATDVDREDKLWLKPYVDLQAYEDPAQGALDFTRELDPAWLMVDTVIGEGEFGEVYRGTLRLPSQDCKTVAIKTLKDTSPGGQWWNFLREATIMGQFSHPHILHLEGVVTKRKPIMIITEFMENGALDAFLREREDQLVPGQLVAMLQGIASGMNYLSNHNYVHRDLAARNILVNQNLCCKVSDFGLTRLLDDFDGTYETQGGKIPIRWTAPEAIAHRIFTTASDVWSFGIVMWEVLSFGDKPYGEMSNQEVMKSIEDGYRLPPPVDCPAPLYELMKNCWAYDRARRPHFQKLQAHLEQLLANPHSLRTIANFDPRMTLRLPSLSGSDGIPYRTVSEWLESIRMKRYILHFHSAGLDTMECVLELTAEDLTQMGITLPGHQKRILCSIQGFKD

[8] = target: panel of more than 300 wild-type and mutant kinases (313 kinase panel) (Homo sapiens, UniProt P22455, V550L); settings: kinase FGFR4(V550L); compound at 1 μM
Sequence of panel of more than 300 wild-type and mutant kinases (313 kinase panel) (Homo sapiens, UniProt P22455, V550L) (P22455 22-802 V550L): as the sequence (P22455 22-802 V550E) above, with E529L counted along it

[9] = target: panel of more than 300 wild-type and mutant kinases (313 kinase panel) (Homo sapiens, UniProt P10721, V560G)
Sequence of panel of more than 300 wild-type and mutant kinases (313 kinase panel) (Homo sapiens, UniProt P10721, V560G) (P10721 26-976 V560G): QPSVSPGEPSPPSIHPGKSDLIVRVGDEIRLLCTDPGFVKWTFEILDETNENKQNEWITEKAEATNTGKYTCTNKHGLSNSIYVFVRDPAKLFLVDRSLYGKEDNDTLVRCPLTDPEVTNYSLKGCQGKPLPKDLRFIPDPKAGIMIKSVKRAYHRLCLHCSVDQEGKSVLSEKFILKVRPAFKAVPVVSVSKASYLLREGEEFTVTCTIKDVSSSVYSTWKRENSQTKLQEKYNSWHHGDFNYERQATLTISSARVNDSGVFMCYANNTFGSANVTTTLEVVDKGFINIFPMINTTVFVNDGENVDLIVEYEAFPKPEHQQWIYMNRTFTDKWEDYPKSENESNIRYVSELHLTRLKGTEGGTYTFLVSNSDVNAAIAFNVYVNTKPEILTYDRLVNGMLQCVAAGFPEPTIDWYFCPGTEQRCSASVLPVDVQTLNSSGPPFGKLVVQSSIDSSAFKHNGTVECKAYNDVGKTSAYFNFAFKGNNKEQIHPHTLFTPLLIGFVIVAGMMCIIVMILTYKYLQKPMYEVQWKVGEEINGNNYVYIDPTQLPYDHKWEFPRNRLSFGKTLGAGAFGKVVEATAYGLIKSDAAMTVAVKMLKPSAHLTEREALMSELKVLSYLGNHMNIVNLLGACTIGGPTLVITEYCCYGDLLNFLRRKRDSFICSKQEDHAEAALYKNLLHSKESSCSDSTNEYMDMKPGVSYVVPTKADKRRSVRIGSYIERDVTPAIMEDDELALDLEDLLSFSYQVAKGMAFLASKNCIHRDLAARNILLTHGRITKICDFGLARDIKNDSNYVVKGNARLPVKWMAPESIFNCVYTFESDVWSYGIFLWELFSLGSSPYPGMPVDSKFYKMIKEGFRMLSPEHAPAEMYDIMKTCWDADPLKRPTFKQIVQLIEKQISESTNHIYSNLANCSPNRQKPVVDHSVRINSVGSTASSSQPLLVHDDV

[10] = target: panel of more than 300 wild-type and mutant kinases (313 kinase panel) (Homo sapiens, UniProt Q8N568)
[11] = kinase MET(Y1235D), compound at 1 μM
[12] = kinase KIT(V560G), compound at 1 μM
[13] = kinase DCAMKL2, compound at 1 μM

Row | SMILES | %-inhibition of FGFR4(V550E) [1] [%] | %-inhibition of TYRO3 ([2]; kinase TYRO3, compound at 1 μM) [%] | %-inhibition of MSSK1 ([3]; kinase MSSK1, 1 μM) [%] | %-inhibition of MET(Y1235D) [4, 11] [%] | %-inhibition of RET(M918T) ([5]; kinase RET(M918T), 1 μM) [%] | %-inhibition of MNK2 ([6]; kinase MNK2, 1 μM) [%] | %-inhibition of EPHA1 ([7]; kinase EPHA1, compound at 1 μM) [%] | %-inhibition of FGFR4(V550L) [8] [%] | %-inhibition of KIT(V560G) [9, 12] [%] | %-inhibition of DCAMKL2 [10, 13] [%] | %-inhibition of MET(Y1235D) ([4]; 1 µM) [%] | %-inhibition of DCAMKL2 ([10]; 1 µM) [%] | %-inhibition of RET(M918T) ([5]; 1 µM) [%] | %-inhibition of KIT(V560G) ([9]; 1 µM) [%] | %-inhibition of TYRO3 ([2]; 1 µM) [%] | %-inhibition of MSSK1 ([3]; 1 µM) [%] | %-inhibition of MNK2 ([6]; 1 µM) [%] | %-inhibition of EPHA1 ([7]; 1 µM) [%]
1 | CO[C@H]1C[C@@H]2CC[C@@H](C)[C@@](O)(O2)C(=O)C(=O)N2CCCC[C@H]2C(=O)O[C@H]([C@H](C)C[C@@H]2CC[C@@H](OC(=O)C(C)(CO)CO)[C@H](OC)C2)CC(=O)[C@H](C)/C=C(\C)[C@@H](O)[C@@H](OC)C(=O)[C@H](C)C[C@H](C)/C=C/C=C/C=C/1C [temsirolimus] | -0.119 | -1.34 | -8 | -6.4 | -3.41 | -14 | -15 | -8.55 | -5 | -4 | – | – | – | – | – | – | – | –
2 | COc1cc2nccc(Oc3ccc(NC(=O)C4(C(=O)Nc5ccc(F)cc5)CC4)cc3)c2cc1OC [cabozantinib] | -4 | – | 32 | – | – | 97 | 84 | -1.35 | 96 | -2.62 | – | – | – | – | – | – | – | –
3 | Cc1nc(Nc2ncc(C(=O)Nc3c(C)cccc3Cl)s2)cc(N2CCN(CCO)CC2)n1 [dasatinib] | – | – | -4.63 | – | – | – | 101 | – | – | 2 | – | – | – | – | – | – | – | –
4 | COc1cc2c(Nc3ccc(Br)cc3F)ncnc2cc1OCC1CCN(C)CC1 [vandetanib] | -0.358 | 94 | -4.37 | – | – | – | 99 | -4.72 | – | -5 | – | – | – | – | – | – | – | –
5 | CC(C)(C)c1nc(-c2cccc(NS(=O)(=O)c3c(F)cccc3F)c2F)c(-c2ccnc(N)n2)s1 [dabrafenib] | -5 | – | 2.55 | 25 | 37 | – | 44 | -1.08 | – | 19 | – | – | – | – | – | – | – | –
6 | Cc1ccc(Nc2nccc(N(C)c3ccc4c(C)n(C)nc4c3)n2)cc1S(N)(=O)=O [pazopanib] | – | 27 | -2 | – | 86 | 2.27 | 54 | – | – | -2.72 | – | – | – | – | – | – | – | –
7 | N#CC[C@H](C1CCCC1)n1cc(-c2ncnc3[nH]ccc23)cn1 [ruxolitinib] | 5 | -3 | 6 | – | – | 54 | 43 | 16 | -7 | – | -0.936 | 64 | – | – | – | – | – | –
8 | C[C@@H](Oc1cc(-c2cnn(C3CCNCC3)c2)cnc1N)c1c(Cl)ccc(F)c1Cl [crizotinib] | -0.358 | – | – | – | – | 2 | 97 | 0.45 | 0.851 | 49 | – | – | – | – | – | – | – | –
9 | O=S(=O)(c1cccc2cnccc12)N1CCCNCC1 [fasudil] | -2.85 | -1.23 | -5.56 | -2.65 | – | 12 | 0.43 | – | 0.322 | -2 | – | – | – | – | – | – | – | –
10 | CS(=O)(=O)CCNCc1ccc(-c2ccc3ncnc(Nc4ccc(OCc5cccc(F)c5)c(Cl)c4)c3c2)o1 [lapatinib] | – | 13 | -3 | 2 | – | 2.43 | 6 | – | – | 7 | – | – | -4.37 | 2.33 | – | – | – | –
11 | C#Cc1cccc(Nc2ncnc3cc(OCCOC)c(OCCOC)cc23)c1 [erlotinib] | – | – | – | – | – | – | – | – | – | – | 22 | 5 | 67 | 17 | 20 | -5 | 35 | 28
12 | Cc1cn(-c2cc(NC(=O)c3ccc(C)c(Nc4nccc(-c5cccnc5)n4)c3)cc(C(F)(F)F)c2)cn1 [nilotinib] | – | – | -17 | -4.56 | – | 2 | 61 | – | – | -17 | – | – | 0.118 | – | -32 | – | – | –
13 | COc1cc(Nc2c(C#N)cnc3cc(OCCCN4CCN(C)CC4)c(OC)cc23)c(Cl)cc1Cl [bosutinib] | -3.46 | – | – | 14 | 93 | -2 | 3 | -7 | 7 | -2.32 | – | – | – | – | – | – | – | –
14 | CCN(CC)CCNC(=O)c1c(C)[nH]c(/C=C2\C(=O)Nc3ccc(F)cc32)c1C [sunitinib] | – | 98 | – | – | – | – | – | – | – | – | – | – | – | – | – | – | – | –
15 | Cc1ccc(C(=O)Nc2ccc(CN3CCN(C)CC3)c(C(F)(F)F)c2)cc1C#Cc1cnc2cccnn12 [ponatinib] | -1.79 | 45 | 17 | – | 101 | 97 | 97 | 20 | – | -3.72 | – | – | – | – | – | – | – | –
